Literature values as cited in patent US11426379B2, “Combination of local and systemic therapies for enhanced treatment of dermatologic conditions” (The Rockefeller University, priority 2017, dated 2022).

Tested on: rabbit skin
Details: intradermal injection, presence of light, reversible with beta-carotene

O=C1OC2(c3cc(I)c(O)c(I)c3Oc3c2cc(I)c(O)c3I)c2c(Cl)c(Cl)c(Cl)c(Cl)c21 [rose bengal, 4,5,6,7-tetrachloro-2′,4′,5′,7′-tetraiodofluorescein]
polymorphonuclear leukocyte accumulation, histamine release and erythema: polymorphonuclear leukocyte accumulation and histamine release with accompanying increased erythema
